From US9005670B2, “Use of histone acetyltransferase inhibitors as novel anti-cancer therapies” (The Johns Hopkins University, priority 2010, dated 2015)

Assays:
[1] = tested on: histone H3 and H4 acetylation in C3H 10T1/2 mouse fibroblasts; test: histone acetylation Western blot in mouse cells; format: cell-based; conditions: 25 μM, 1-3 hours
Source text: Histones in mammalian cells show characteristic rates of turnover of acetylation, with a majority showing slower rates and a very minor fraction showing very fast turnover. This latter fraction has been associated with gene activation, and is defined by rapid hyperacetylation in the presence of deacetylase inhibitors such as Trichostatin A (TSA). In addition to SDS gels (FIG. 9A), Acid-Urea gels (AU, FIG. 9B) were used, on which loss of a positive charge upon lysine acetylation retards migration, producing a ladder of bands corresponding to integral changes in acetylation.
C3H 10T1/2 mouse fibroblasts were grown in DMEM with 10% FCS at 37° C. with 5% CO2. Confluent cultures were rendered quiescent in DMEM with 0.5% FCS for 18-20 h prior to treatment. […] Antibodies were used at the following concentrations: total H3 (1:10000; ab7834; Abcam); H4K12ac (1:2500; 06-761; Upstate). Rabbit anti-H3K9ac (1:10000) antibodies were generated in-house. Histones were isolated from cells by acid extraction, separated by SDS and acid-urea polyacrylamide gel electrophoresis and analyzed by Western blotting.

H247 glioblastoma cells = test: AlamarBlue growth inhibition, H247; format: cell-based; conditions: H247, 72 hours
Procedure: (§1) Dose response curves were generated using the AlamarBlue® assay (Invitrogen, Carlsbad, Calif.).
(§2) When inhibition was assessed using the AlamarBlue® assay (Invitrogen, Carlsbad, Calif.), cells were initially seeded at 500 cells per well in a 96-well plate. AlamarBlue® is a non-toxic reagent that measures cellular metabolic activity. Its main ingredient is resazurin, a non-fluorescent indicator dye that is reduced to bright red-fluorescent resorufin in metabolically active cells. AlamarBlue® was added to growth medium at 1/10 of the total volume (e.g., 20 μl in 200 μl total volume). […] Fluorescence reading was taken from the same plate every day for 5 days to ensure that the saturation point was not reached. Fluorescence intensity is proportional to the number of live cells in the plate.

Mel-1 melanoma cells = test: combination with chemotherapy, total cell number; format: cell-based; conditions: 2 μM C646, 24 hours before chemotherapy agent
Procedure: The cells were grown for 24 hours in medium. The cells were given fresh medium and either 1 μM of cisplatin or 200 μM of temozolamide was added. Total cell number was counted on Day 0, at 24 hours, and 48 hours after addition of cisplatin or temozolamide.
After 24 hours, the treated and mock-treated cells were given fresh medium, and the cells were treated with cisplatin or temozolamide for 48 hours.

U87 glioblastoma cells = test: AlamarBlue growth inhibition, U87; format: cell-based; conditions: U87, 72 hours
Procedure: as §1, §2

[2] = tested on: cyclin A in melanoma cells; test: cyclin A protein expression, Western blot; format: cell-based; conditions: 10-20 μM C646
Source text: FIGS. 19A and 19B show the effects of p300/CBP HAT inhibition on cyclin A protein expression in melanoma cells.
Cyclin A is involved in two cell cycle checkpoints. Cyclin A associates with cdk2 to promote S phase progression, and then it associates with cdc2 during the G2 phase.

[3] = tested on: three melanoma and three non-small cell lung cancer lines; test: 3H-thymidine incorporation, melanoma and lung cancer lines; format: cell-based, human; conditions: 24 hours; C646 10 μM, Lys-CoA-Tat 25 μM
Source text: The following cell lines were used: WM35 (melanoma), WM983A (melanoma), 1205Lu (melanoma), H23 (NSCLC), H838 (NSCLC), and H1395 (NSCLC). Melanoma cells were maintained in Dulbecco's Modified Eagle Medium. NSCLCs were maintained in RPMI Medium 1640. Both types of media were supplemented with 10% fetal bovine serum (FBS), penicillin-streptomycin, and L-glutamine. Media, pen-strep, and L-glutamine were purchased from Invitrogen. FBS was purchased from Gemini Bio-Products (#100106). […] Compound stocks (10-20 mM in anhydrous DMSO) were directly added to culture media at desired concentrations. DMSO concentration was kept constant at 0.2% between different treatment conditions. Cells were seeded in 96-well plates at ˜5000 cells per well on average, depending on each cell line's doubling time. After attachment, cells were treated with p300 inhibitors, control compounds, or DMSO for 24 h. After treatment, ^3H-thymidine (1 mCi/ml stock) was added to media at 10 μCi/ml final concentration. Cells were incubated for an additional 5 hours, then trypsinized and collected onto a filter mat using a Cell Harvester (PerkinElmer). Radioactivity was measured with a MicroBeta plate reader (PerkinElmer). Each sample was tested in triplicate.

WM983A melanoma cells = test: 3H-thymidine incorporation, WM983A; conditions: Homo sapiens, read-out: IC50 (proliferation, 3H-thymidine incorporation)
LN382 glioblastoma cells = test: AlamarBlue growth inhibition, LN382; format: cell-based; conditions: LN382, 72 hours
Procedure: as §1, §2

IC50 (H247 glioblastoma cells): 14.4 µM
IC50 (U87 glioblastoma cells): 15.1 µM
IC50 (WM983A melanoma cells): 10 to 20 µM
IC50 (LN382 glioblastoma cells): 35.5 µM
Compound: CC1=NN(c2ccc(C(=O)O)cc2)C(=O)C1=Cc1ccc(-c2cc(C)c(C)cc2[N+](=O)[O-])o1 [Compound C646, 4-(4,5-dihydro-3-methyl-4-((5-(4,5-dimethyl-2-nitrophenyl)furan-2-yl)methylene)-5-oxopyrazol-1-yl)benzoic acid]
basal acetylation levels of H3 and H4 [1]: slightly diminished
TSA-inducible acetylation of histones H3 and H4 ([1]; TSA 33 nM final 30 min): virtually completely inhibited
sensitization to chemotherapy (Mel-1 melanoma cells): sensitized the melanoma cells to temozolamide
cyclin A protein level [2]: decreases after C646 treatment in a dose-dependent fashion
3H-thymidine incorporation [3]: capable of reducing ^3H-thymidine incorporation in several of these human cancer lines
